What was measured:
Test in all cases: HTS ATP-utilizing enzyme assay, off-chip mobility-shift (Caliper HTS 250)
Assay type in all cases: biochemical
Settings in all cases: test compound 10 μM, kinase listed = active (greater than six-sigma from the mean activity of inactive compounds)
MAPKAPK2 = MAPKAPK2 (Homo sapiens, UniProt P49137)
Outline: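 Single-point screen of test compound at 10 μM against MAPKAPK2 with peptide substrate in HEPES pH 7.5 buffer (Triton X-100, BSA), 2.5 h at 20-22 °C. Substrate-to-phosphopeptide ratio was read by off-chip microfluidic mobility shift; EDTA and DMSO wells defined 100% and 0% controls, hits by six-sigma limits.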

NEK2 = biological target: T1, NEK2 (Homo sapiens, UniProt P51955)
T1 sequence (P51955 1-445): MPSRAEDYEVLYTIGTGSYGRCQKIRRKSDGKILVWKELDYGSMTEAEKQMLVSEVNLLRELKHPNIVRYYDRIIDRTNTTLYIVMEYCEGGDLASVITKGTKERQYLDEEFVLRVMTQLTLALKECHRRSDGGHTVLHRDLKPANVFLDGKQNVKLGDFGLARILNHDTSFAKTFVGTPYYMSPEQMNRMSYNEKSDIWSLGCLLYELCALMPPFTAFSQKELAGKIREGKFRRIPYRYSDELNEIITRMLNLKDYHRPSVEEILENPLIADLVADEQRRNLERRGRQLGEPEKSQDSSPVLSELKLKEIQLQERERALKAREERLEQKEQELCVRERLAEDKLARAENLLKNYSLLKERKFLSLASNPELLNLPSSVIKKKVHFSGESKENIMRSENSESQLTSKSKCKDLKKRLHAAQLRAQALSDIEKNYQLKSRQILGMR
Text: (§1) The following procedures describe the reagent and plate preparation for a HTS of an ATP-utilizing enzyme, such as a protein kinase, run in an off-chip mobility-shift assay format. The following provides an HTS protocol for running a protein kinase HTS screen on a Caliper HTS 250 microfluidics system. The following parameters are dependent on the protein kinase used and can be determined by one skilled in the art as part of a typical assay development process. For example, the peptide substrate used can be identified from the current literature, by screening a peptide library of potential protein kinase substrates, or by other applicable means accepted in the field.
(§2) The following table provides typical screen assay parameters appropriate for a Caliper HTS 250 microfluidics system.
(§3) The reagents and buffers listed in the following table are generally applicable for developing and running an HTS screen on a human protein kinase using the Caliper HTS 250 system.
(§4) The following reagents were prepared using the previously described buffers.
(§5) A 2× Master Buffer solution was prepared by combining 200 mL of 1 M HEPES, pH 7.5, 2 mL of 10% Triton X-100, 20 mL of 10% BSA, and 778 mL of H2O.
(§6) A 2.5× Substrate Buffer solution was prepared by combining 177.408 mL of 2× Master Buffer, 0.887 mL of 1 mM peptide-X, and 176.521 mL of H2O.
(§7) A 1.55× Termination Buffer solution was prepared by combining 762.05 mL of 2× Master Buffer, 95.1 mL of 0.5 M EDTA, and 666.94 mL of H2O.
(§8) A TCB Buffer solution was prepared by combining 125 mL of 2× Master Buffer, 10 mL of 0.5 M EDTA, 6.25 mL of 4% coating reagent, 1.01 mL of 100% DMSO, and 107.74 mL H2O.
(§9) A Dye Trough solution was prepared by combining 0.5 μL of peptide-X, and 2,999.5 μL of IX Master Buffer.
(§10) A 1.06× Assay Buffer solution was prepared by combining 205.15 mL of 2× Master Buffer, and 181.92 mL of H2O.
(§11) Assays to determine the kinase inhibitory activity of compounds of the present disclosure were performed using a Caliper HTS 250 microfluidics device, Greiner U-bottom assay plates, a Multidrop for transfer of reagents, and Biomek FX (AMNCBM03) software. Initially, 2.4 μL of a 1 mM solution of a test compound in 100% DMSO was added to a well of the Greiner U-bottom plate. A single Greiner U-bottom plate having 24×16 wells could include multiple test compounds. Next, […] of 1.06× Assay Buffer was added to each well of the assay plate. Using the Biomek FX, 10 μL of 0.5 M EDTA was added by the span-8 to wells, indicated as 100% Control and 2.4 μL of 100% DMSO was added by the span-8 to wells, indicated as 0% Control. Using the Multidrop, 10 μL of 2.5× Enzyme Buffer, followed by 10 μL of 2.5× Substrate Buffer was added to each well of the assay plate. The total reaction volume in each well was 25 μL, and the concentration of the test compound was 10 μM. The assay plate was incubated for 2.5 hrs at 20° C. to 22° C. After the incubation period, using the Multidrop, 45 μL of 1.55× Termination Buffer was added to each well of the assay plate to stop the reaction. The inhibition of the ATP-utilizing enzyme, such as a particular protein kinase, was determined by measuring the ratio of the peptide substrate to phosphorylated product for each well of the assay plate using the Caliper HTS 250 system.
(§12) The use of six-sigma statistical limits represents a conservative method for declaring potential hits among targets. The six-sigma activity, as well as the mean population activity, can be different for each target enzyme. This method has an expected false positive rate, from an in-control measurement process, of one in one million.

PRAK = biological target: T2, PRAK (Homo sapiens, UniProt Q8IW41)
T2 sequence (Q8IW41 1-473): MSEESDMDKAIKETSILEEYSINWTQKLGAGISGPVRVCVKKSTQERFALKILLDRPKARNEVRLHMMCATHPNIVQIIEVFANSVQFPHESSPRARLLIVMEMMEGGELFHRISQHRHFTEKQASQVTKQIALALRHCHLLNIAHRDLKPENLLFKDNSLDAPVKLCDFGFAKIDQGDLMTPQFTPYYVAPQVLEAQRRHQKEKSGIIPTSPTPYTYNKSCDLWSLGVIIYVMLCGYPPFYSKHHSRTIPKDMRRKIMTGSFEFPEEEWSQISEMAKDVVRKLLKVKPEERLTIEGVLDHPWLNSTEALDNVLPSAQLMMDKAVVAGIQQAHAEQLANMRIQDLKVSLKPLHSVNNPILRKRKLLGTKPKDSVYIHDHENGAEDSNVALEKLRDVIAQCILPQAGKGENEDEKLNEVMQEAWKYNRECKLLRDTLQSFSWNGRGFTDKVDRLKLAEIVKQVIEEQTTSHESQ
Text: as §1, §2, §3, §4, §5, §6, §7, §8, §9, §10, §11, §12

C-TAK1 = C-TAK1 (Homo sapiens, UniProt P27448)
Text: as §1, §2, §3, §4, §5, §6, §7, §8, §9, §10, §11, §12

MAPKAPK2, sequence (P49137 whole entry): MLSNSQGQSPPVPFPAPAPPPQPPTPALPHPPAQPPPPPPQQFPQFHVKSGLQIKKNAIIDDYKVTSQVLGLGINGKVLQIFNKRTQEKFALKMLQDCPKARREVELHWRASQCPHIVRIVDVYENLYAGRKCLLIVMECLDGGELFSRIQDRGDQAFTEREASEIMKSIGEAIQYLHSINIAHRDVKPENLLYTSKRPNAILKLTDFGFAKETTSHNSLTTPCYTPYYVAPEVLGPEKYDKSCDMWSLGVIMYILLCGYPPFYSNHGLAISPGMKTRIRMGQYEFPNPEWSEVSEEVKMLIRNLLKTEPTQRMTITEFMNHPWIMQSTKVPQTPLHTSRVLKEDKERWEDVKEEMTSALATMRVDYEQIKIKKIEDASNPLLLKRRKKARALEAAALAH
C-TAK1, sequence (P27448 whole entry): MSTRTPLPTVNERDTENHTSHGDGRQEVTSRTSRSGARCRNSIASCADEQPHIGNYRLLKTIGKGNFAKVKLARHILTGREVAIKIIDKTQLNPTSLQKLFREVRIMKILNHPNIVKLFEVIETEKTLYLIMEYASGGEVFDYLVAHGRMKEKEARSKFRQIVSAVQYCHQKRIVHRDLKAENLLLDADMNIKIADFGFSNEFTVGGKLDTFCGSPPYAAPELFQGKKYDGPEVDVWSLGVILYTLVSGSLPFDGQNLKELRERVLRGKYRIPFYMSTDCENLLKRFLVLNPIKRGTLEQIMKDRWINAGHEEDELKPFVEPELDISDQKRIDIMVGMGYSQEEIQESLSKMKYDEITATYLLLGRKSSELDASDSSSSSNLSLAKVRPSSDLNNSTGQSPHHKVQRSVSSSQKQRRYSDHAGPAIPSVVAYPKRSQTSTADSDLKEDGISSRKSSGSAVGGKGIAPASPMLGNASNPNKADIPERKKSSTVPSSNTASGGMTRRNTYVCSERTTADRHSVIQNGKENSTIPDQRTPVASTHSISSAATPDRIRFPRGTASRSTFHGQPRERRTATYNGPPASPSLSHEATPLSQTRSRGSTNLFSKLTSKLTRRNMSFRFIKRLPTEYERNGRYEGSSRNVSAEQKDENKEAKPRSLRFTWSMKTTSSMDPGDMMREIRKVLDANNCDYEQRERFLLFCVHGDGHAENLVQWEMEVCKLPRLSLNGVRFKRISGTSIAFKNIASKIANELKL

| Compound | Activity (MAPKAPK2) | Activity (NEK2) | Activity (PRAK) | Activity (C-TAK1) |
| --- | --- | --- | --- | --- |
| CN1CCN(c2ccc(Nc3ccnc4ccc(-c5ccc(C#N)cc5)cc34)cc2)CC1 [4-(4-(4-(4-methylpiperazin-1-yl)phenylamino)quinolin-6-yl)benzonitrile] | MAPKAPK2 | NEK2 | PRAK |  |
| Cc1cccc(-c2ccc3nccc(Nc4ccc(N5CCN(C)CC5)cc4)c3c2)c1C [6-(2,3-dimethylphenyl)-N-(4-(4-methylpiperazin-1-yl)phenyl)quinolin-4-amine] | MAPKAPK2 | NEK2 | PRAK |  |
| CN1CCN(c2ccc(Nc3ccnc4ccc(-c5ccc(Cl)cc5Cl)cc34)cc2)CC1 [6-(2,4-dichlorophenyl)-N-(4-(4-methylpiperazin-1-yl)phenyl)quinolin-4-amine] | MAPKAPK2 | NEK2 | PRAK |  |
| CN1CCN(c2ccc(Nc3ccnc4ccc(-c5ccc(F)cc5F)cc34)cc2)CC1 [6-(2,4-difluorophenyl)-N-(4-(4-methylpiperazin-1-yl)phenyl)quinolin-4-amine] | MAPKAPK2 | NEK2 | PRAK |  |
| COc1ccc(-c2ccc3nccc(Nc4ccc(N5CCN(C)CC5)cc4)c3c2)c(OC)c1 [6-(2,4-dimethoxyphenyl)-N-(4-(4-methylpiperazin-1-yl)phenyl)quinolin-4-amine] | MAPKAPK2 | NEK2 | PRAK |  |
| CN1CCN(c2ccc(Nc3ccnc4ccc(-c5cc(F)ccc5F)cc34)cc2)CC1 [6-(2,5-difluorophenyl)-N-(4-(4-methylpiperazin-1-yl)phenyl)quinolin-4-amine] | MAPKAPK2 | NEK2 | PRAK |  |
| CCc1ccccc1-c1ccc2nccc(Nc3ccc(N4CCN(C)CC4)cc3)c2c1 [6-(2-ethylphenyl)-N-(4-(4-methylpiperazin-1-yl)phenyl)quinolin-4-amine] | MAPKAPK2 | NEK2 | PRAK |  |
| COc1ccccc1-c1ccc2nccc(Nc3ccc(N4CCN(C)CC4)cc3)c2c1 [6-(2-methoxyphenyl)-N-(4-(4-methylpiperazin-1-yl)phenyl)quinolin-4-amine] | MAPKAPK2 | NEK2 | PRAK |  |
| Cc1ccc(-c2ccc3nccc(Nc4ccc(N5CCN(C)CC5)cc4)c3c2)cc1C [6-(3,4-dimethylphenyl)-N-(4-(4-methylpiperazin-1-yl)phenyl)quinolin-4-amine] | MAPKAPK2 | NEK2 | PRAK |  |

Next, values leading:

| Activity (MAPKAPK2) | Activity (NEK2) | Activity (PRAK) | Activity (C-TAK1) | Compound |
| --- | --- | --- | --- | --- |
| MAPKAPK2 | NEK2 | PRAK |  | CN1CCN(c2ccc(Nc3ccnc4ccc(-c5cccc(Cl)c5)cc34)cc2)CC1 [6-(3-chlorophenyl)-N-(4-(4-methylpiperazin-1-yl)phenyl)quinolin-4-amine] |
| MAPKAPK2 |  |  | C-TAK1 | CN1CCN(c2ccc(Nc3ccnc4ccc(-c5ccc(C6CCCCC6)cc5)cc34)cc2)CC1 [6-(4-cyclohexylphenyl)-N-(4-(4-methylpiperazin-1-yl)phenyl)quinolin-4-amine] |
| MAPKAPK2 | NEK2 | PRAK |  | CC(C)c1ccc(-c2ccc3nccc(Nc4ccc(N5CCN(C)CC5)cc4)c3c2)cc1 [6-(4-isopropylphenyl)-N-(4-(4-methylpiperazin-1-yl)phenyl)quinolin-4-amine] |
| MAPKAPK2 |  | PRAK |  | CN1CCN(c2ccc(Nc3ccnc4ccc(-c5ccc(CO)cc5)cc34)cc2)CC1 [(4-(4-(4-(4-methylpiperazin-1-yl)phenylamino)quinolin-6-yl)phenyl)methanol] |
| MAPKAPK2 |  | PRAK |  | CCN1CCN(c2ccc(Nc3ccnc4ccc(-c5ccccc5)cc34)cc2)CC1 [N-(4-(4-ethylpiperazin-1-yl)phenyl)-6-phenylquinolin-4-amine] |
| MAPKAPK2 |  | PRAK |  | CN1CCN(c2ccc(Nc3ccnc4ccc(-c5cccc(OC(F)(F)F)c5)cc34)cc2)CC1 [N-(4-(4-methylpiperazin-1-yl)phenyl)-6-(3-(trifluoromethoxy)phenyl)quinolin-4-amine] |
| MAPKAPK2 |  | PRAK |  | CN1CCN(c2ccc(Nc3ccnc4ccc(-c5ccc([S+](C)[O-])cc5)cc34)cc2)CC1 (stereo not shown) [N-(4-(4-methylpiperazin-1-yl)phenyl)-6-(4-(methylsulfinyl)phenyl)quinolin-4-amine] |
| MAPKAPK2 |  | PRAK |  | CN1CCN(c2ccc(Nc3ccnc4ccc(-c5ccc(OC(F)(F)F)cc5)cc34)cc2)CC1 [N-(4-(4-methylpiperazin-1-yl)phenyl)-6-(4-(trifluoromethoxy)phenyl)quinolin-4-amine] |
|  |  | PRAK | C-TAK1 | CCCCCc1ccc(-c2ccc3nccc(Nc4ccc(N5CCN(C)CC5)cc4)c3c2)cc1 [N-(4-(4-methylpiperazin-1-yl)phenyl)-6-(4-pentylphenyl)quinolin-4-amine] |
| MAPKAPK2 |  | PRAK |  | CN1CCN(c2ccc(Nc3ccnc4ccc(-c5ccsc5)cc34)cc2)CC1 [N-(4-(4-methylpiperazin-1-yl)phenyl)-6-(thiophen-3-yl)quinolin-4-amine] |
| MAPKAPK2 | NEK2 | PRAK |  | Cc1cccc(-c2ccc3nccc(Nc4ccc(N5CCN(C)CC5)cc4)c3c2)c1 [N-(4-(4-methylpiperazin-1-yl)phenyl)-6-m-tolylquinolin-4-amine] |
| MAPKAPK2 | NEK2 | PRAK |  | Cc1ccc(-c2ccc3nccc(Nc4ccc(N5CCN(C)CC5)cc4)c3c2)cc1 [N-(4-(4-methylpiperazin-1-yl)phenyl)-6-p-tolylquinolin-4-amine] |

Source: patent US7452887B2, “Quinoline- and isoquinoline-based compounds exhibiting ATP-utilizing enzyme inhibitory activity, and compositions, and uses thereof” (Amphora Discovery Corporation, priority 2004, dated 2008)
